The results in this text go back to patent US20150175584A1, “Quinazolin-THF-amines as PDE1 inhibitors” (H. LUNDBECK A/S, priority 2013, published 2015).

In general, IC50 refers to the concentration needed to halve the response being measured.

Format in all cases: biochemical
Common to all, as to details: 15 nM tritium labelled cAMP, 1 h at room temperature, SPA beads

For one assay, the target named is PDE1A (Homo sapiens, UniProt P54750). Briefly: PDE1 Inhibition Assay, PDE1A (SPA). The procedure: (§1) PDE1A, PDE1B and PDE1C assays were performed as follows: the assays was performed in 60 μL samples containing a fixed amount of the PDE1 enzym1 (sufficient to convert 20-25% of the cyclic nucleotide substrate), a buffer (50 mM HEPES pH 7.6; 10 mM MgCl2; 0.02% Tween20), 0.1 mg/ml BSA, 15 nM tritium labelled cAMP and varying amounts of inhibitors. Reactions were initiated by addition of the cyclic nucleotide substrate, and reactions were allowed to proceed for 1 h at room temperature before being terminated through mixing with 20 μL (0.2 mg) yttrium silicate SPA beads (PerkinElmer). The beads were allowed to settle for 1 h in the dark before the plates were counted in a Wallac 1450 Microbeta counter. The measured signals were converted to activity relative to an uninhibited control (100%) and IC50 values were calculated using XIFit (model 205, IDBS).

The target in a further assay is PDE1B (Homo sapiens, UniProt Q01064). Nature of the assay: PDE1 Inhibition Assay, PDE1B (SPA). As to the method: as §1
The next assay addresses PDE1C (Homo sapiens, UniProt Q14123). Nature of the assay: PDE1 Inhibition Assay, PDE1C (SPA). As to the method:
as §1

PDE1B, sequence (Q01064 whole entry): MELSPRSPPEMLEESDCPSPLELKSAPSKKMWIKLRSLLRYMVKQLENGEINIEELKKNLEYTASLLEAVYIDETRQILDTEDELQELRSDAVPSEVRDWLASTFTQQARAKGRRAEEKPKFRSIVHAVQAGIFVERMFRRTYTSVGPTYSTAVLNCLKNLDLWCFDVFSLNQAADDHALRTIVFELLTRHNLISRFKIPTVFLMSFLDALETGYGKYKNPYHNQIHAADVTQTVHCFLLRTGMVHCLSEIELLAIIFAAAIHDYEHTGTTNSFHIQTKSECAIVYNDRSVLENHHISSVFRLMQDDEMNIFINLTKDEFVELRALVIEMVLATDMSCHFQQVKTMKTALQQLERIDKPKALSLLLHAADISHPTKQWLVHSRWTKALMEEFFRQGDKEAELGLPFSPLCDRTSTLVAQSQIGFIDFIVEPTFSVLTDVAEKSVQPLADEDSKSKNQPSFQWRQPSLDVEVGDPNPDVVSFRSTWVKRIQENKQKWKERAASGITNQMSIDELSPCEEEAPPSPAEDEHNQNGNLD
PDE1A, sequence (P54750 whole entry): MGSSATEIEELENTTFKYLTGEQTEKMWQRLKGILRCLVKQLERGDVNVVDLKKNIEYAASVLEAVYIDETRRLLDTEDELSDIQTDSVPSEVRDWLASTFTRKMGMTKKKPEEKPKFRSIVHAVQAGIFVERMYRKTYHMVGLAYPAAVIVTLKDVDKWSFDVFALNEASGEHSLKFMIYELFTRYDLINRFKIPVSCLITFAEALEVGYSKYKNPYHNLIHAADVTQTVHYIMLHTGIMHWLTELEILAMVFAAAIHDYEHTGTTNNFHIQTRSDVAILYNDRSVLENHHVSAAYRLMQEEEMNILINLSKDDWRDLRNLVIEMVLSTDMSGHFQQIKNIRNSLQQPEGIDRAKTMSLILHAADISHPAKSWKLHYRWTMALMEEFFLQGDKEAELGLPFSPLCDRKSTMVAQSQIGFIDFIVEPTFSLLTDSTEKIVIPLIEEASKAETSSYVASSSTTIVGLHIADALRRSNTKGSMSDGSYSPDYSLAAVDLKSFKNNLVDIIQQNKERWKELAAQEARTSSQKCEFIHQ
PDE1C, sequence (Q14123 whole entry): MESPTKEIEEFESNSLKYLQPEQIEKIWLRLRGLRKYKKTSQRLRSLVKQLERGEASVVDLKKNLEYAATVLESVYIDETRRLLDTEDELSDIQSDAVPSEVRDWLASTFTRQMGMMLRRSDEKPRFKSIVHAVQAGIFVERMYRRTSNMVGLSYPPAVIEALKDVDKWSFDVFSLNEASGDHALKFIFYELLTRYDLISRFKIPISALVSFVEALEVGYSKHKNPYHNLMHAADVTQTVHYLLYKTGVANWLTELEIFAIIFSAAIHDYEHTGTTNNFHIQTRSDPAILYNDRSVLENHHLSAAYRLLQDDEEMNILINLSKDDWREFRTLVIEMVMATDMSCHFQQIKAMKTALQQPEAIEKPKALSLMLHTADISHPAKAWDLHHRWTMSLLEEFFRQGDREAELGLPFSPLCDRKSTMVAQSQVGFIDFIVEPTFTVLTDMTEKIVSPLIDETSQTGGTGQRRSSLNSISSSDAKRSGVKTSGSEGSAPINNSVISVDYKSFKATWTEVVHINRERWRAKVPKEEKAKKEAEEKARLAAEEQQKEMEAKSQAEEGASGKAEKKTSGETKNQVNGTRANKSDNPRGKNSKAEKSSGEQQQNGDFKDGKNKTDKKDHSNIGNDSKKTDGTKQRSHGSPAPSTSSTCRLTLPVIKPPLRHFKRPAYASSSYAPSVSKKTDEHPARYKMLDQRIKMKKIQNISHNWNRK

Take `COc1ccc2c(N(C)C3(C)CCOC3C)ncnc2c1OC` (single isomer, unassigned) [20 Stereoisomer 3]: the IC50 on PDE1A was 440 nM; against PDE1B it was 190 nM; at PDE1C it was 890 nM.
For the molecule `COc1ccc2c(N(CC3CC3)[C@H]3CCOC3)ncnc2c1OC` [Compound 11, (S)-N-(cyclopropylmethyl)-7,8-dimethoxy-N-(tetrahydrofuran-3-yl)quinazolin-4-amine], the figures for the IC50 on PDE1A, at PDE1B and at PDE1C were 850 nM, 420 nM and 1600 nM, respectively.
For `COc1ccc2c(N[C@@H]3COC[C@H]3O)ncnc2c1OC` (relative stereo) [Compound 18, trans-4-((7,8-dimethoxyquinazolin-4-yl)amino)tetrahydrofuran-3-ol] the same measures were 2300 nM, 1300 nM and 2600 nM.
In the case of `COc1ccc2c(NC3(C)CCOC3C)ncnc2c1OC` (single isomer, unassigned) [5 Stereoisomer 4], the results for the IC50 on PDE1A, on PDE1B and against PDE1C were 77 nM, 15 nM and 140 nM, respectively.
The like results for `COc1ccc2c(NC3(C)CCOC3C)ncnc2c1OC` (single isomer, unassigned) [5 Stereoisomer 3] were, in that order, 33 nM, 6 nM and 67 nM.
For `COc1ccc2c(NC3CCOC3C)ncnc2c1OC` (single isomer, unassigned) [3 Stereoisomer 1] the same measures were 2500 nM, 1200 nM and 3000 nM.
`COc1ccc2c(N(C)[C@@H]3CCOC3)ncnc2c1OC` (single isomer, unassigned) [4 Stereoisomer 1]: the IC50 on PDE1A was 370 nM; at PDE1B it was 80 nM; on PDE1C it was 140 nM.
For `COc1ccc2c(NC3(C)CCOC3C)ncnc2c1OC` (single isomer, unassigned) [5 Stereoisomer 2] the same measures were 240 nM, 87 nM and 400 nM.
As for `COc1ccc2c(N(C)C3(C)CCOC3)ncnc2c1OC` (single isomer, unassigned) [23 Stereoisomer 2], the figures for the IC50 against PDE1A, on PDE1B and on PDE1C were 160 nM, 55 nM and 170 nM, respectively.
For `COc1ccc2c(NC3CCOC3(C)C)ncnc2c1OC` (single isomer, unassigned) [21 Stereoisomer 2] the same measures were 1300 nM, 260 nM and 1600 nM.
For the molecule `COc1ccc2c(N[C@@H]3COC[C@@H]3O)ncnc2c1OC` (relative stereo) [Compound 19, cis-4-((7,8-dimethoxyquinazolin-4-yl)amino)tetrahydrofuran-3-ol], the IC50 against PDE1A was 4600 nM; against PDE1B, 840 nM.
Take `COc1ccc2c(N(C)C3CCOC3C)ncnc2c1OC` (single isomer, unassigned) [22 Stereoisomer 3]: the IC50 was 1100 nM against PDE1A, 430 nM against PDE1B and 1500 nM on PDE1C.
The like results for `COc1ccc2c(N(C)C3CCOC3)ncnc2c1OC` (stereo not shown) [Compound 4, 7,8-Dimethoxy-N-methyl-N-(tetrahydrofuran-3-yl)quinazolin-4-amine] were, in that order, 360 nM, 84 nM and 140 nM.
As for `CCC1(Nc2ncnc3c(OC)c(OC)ccc23)CCOC1` (stereo not shown) [Compound 24, N-(3-Ethyltetrahydrofuran-3-yl)-7,8-dimethoxyquinazolin-4-amine], the IC50 against PDE1B is 63 nM; at PDE1C, 220 nM.
In the case of `COc1ccc2c(NC3(C)CCOC3)ncnc2c1OC` (single isomer, unassigned) [6 Stereoisomer 2], the IC50 was 140 nM at PDE1A, 37 nM against PDE1B and 110 nM against PDE1C.
For `COc1ccc2c(NC3CCOC3C)ncnc2c1OC` (single isomer, unassigned) [3 Stereoisomer 2] the same measures were 490 nM, 94 nM and 310 nM.
For `COc1ccc2c(N(Cc3ccccc3)[C@@H]3CCOC3)ncnc2c1OC` [Compound 16, (R)—N-benzyl-7,8-dimethoxy-N-(tetrahydrofuran-3-yl)quinazolin-4-amine] the same measures were 1200 nM, 410 nM and 1600 nM.
As to `COc1ccc2c(NC3(C)CCOC3C)ncnc2c1OC` (mixture of isomers) [Compound 5, N-(2,3-dimethyltetrahydrofuran-3-yl)-7,8-dimethoxyquinazolin-4-amine], the results for the IC50 at PDE1A, against PDE1B and at PDE1C were 130 nM, 33 nM and 130 nM, respectively.
On to `COc1ccc2c(NC3(C)CCOC3)ncnc2c1OC` (stereo not shown) [Compound 6, 7,8-dimethoxy-N-(3-methyltetrahydrofuran-3-yl)quinazolin-4-amine], for which the values for the IC50 at PDE1A, on PDE1B and on PDE1C were 150 nM, 62 nM and 160 nM, respectively.
Consider `COc1ccc2c(N(C)[C@H]3CCOC3)ncnc2c1OC` (single isomer, unassigned) [4 Stereoisomer 2], for which the IC50 against PDE1A is 1400 nM; at PDE1B, 80 nM; against PDE1C, 140 nM.
The like results for `COc1ccc2c(N(C)C3CCOC3C)ncnc2c1OC` (single isomer, unassigned) [22 Stereoisomer 1] were, in that order, 110 nM, 28 nM and 79 nM.
For `COc1ccc2c(N(C)C3(C)CCOC3C)ncnc2c1OC` (single isomer, unassigned) [20 Stereoisomer 4], the IC50 against PDE1A is 120 nM; on PDE1B it was 39 nM; against PDE1C it was 170 nM.
For `COc1ccc2c(NC3CCOC3)ncnc2c1OC` (single isomer, unassigned) [1 Stereoisomer 2] the same measures were 1900 nM, 600 nM and 1200 nM.
Consider `COc1ccc2c(N(C)C3CCOC3C)ncnc2c1OC` (single isomer, unassigned) [22 Stereoisomer 2], for which the IC50 amounted to 210 nM on PDE1A, 35 nM against PDE1B and 55 nM at PDE1C.
For `COc1ccc2c(N(C)C3CCOC3C)ncnc2c1OC` (single isomer, unassigned) [22 Stereoisomer 4] the same measures were 1500 nM, 1100 nM and 780 nM.
Take `CCCN(c1ncnc2c(OC)c(OC)ccc12)[C@H]1CCOC1` [Compound 9, (S)-7,8-dimethoxy-N-propyl-N-(tetrahydrofuran-3-yl)quinazolin-4-amine]: the IC50 stood at 280 nM against PDE1A, 180 nM against PDE1B and 540 nM on PDE1C.
The like results for `COc1ccc2c(N[C@@H]3COC[C@H]3OC)ncnc2c1OC` (relative stereo) [Compound 17, Trans-7,8-dimethoxy-N-(4-methoxytetrahydrofuran-3-yl)quinazolin-4-amine] were, in that order, 2200 nM, 520 nM and 1300 nM.
In the case of `COc1ccc2c(N(C)C3(C)CCOC3C)ncnc2c1OC` (single isomer, unassigned) [20 Stereoisomer 2], the IC50 at PDE1A amounted to 26 nM; at PDE1B, 4 nM; on PDE1C, 27 nM.
